Reference: patent publication US11045519B2, “Arginine-rich polypeptide compositions and methods of using same” (UNM Rainforest Innovations, priority 2017, dated 2021)

Target: T1, recombinant His-furin (Homo sapiens, UniProt P09958)
T1 construct: His
Assay: Furin cleavage of HPV16 L2 capsid protein (immunoblot)
Format: biochemical
Conditions: 1 μM, 3 nM His-furin, 2 h
Description: FIG. 9. PolyR inhibits HPV16 L2 protein cleavage by furin and induces accumulation of internalized virus particles in late endosomal fraction. (A) Equal amount of HPV16 diluted in 50 μl furin assay buffer (1 mM CaCl2), 100 mM HEPES, 0.5% Triton X-100, 1 mM β-mercaptoethanol) was loaded into six tubes, […], in the presence of 1.3 μM furin inhibitor1 (Merck Millipore Corp., Burlington, Mass.), or 1 μM polyR. Samples were mixed with SDS-PAGE sample buffer and boiled before fractionation on 9% gel. Proteins were transferred onto PVDF membranes and after blocking, incubated with affinity-purified rabbit anti-HPV16 polyclonal antibody. Secondary donkey anti-rabbit horseradish peroxidase-coupled antibody was used for detection of HPV16 capsid proteins. (B) HaCaT cells grown on coverslips were incubated with HPV16 PsVs for one hour at 37° C. to initiate virus binding (and partial internalization) before adding 1 μM polyR and further incubated for seven hours. […]
Cleavage of the L2 minor capsid protein by the cellular pro-protein convertase, furin, is an essential step in infectious entry of HPVs. […] After two hours of incubation, HPV16 cleavage was assessed by immunoblotting using anti-HPV 16 polyclonal antibody. […]

T1 sequence (P09958 108-794): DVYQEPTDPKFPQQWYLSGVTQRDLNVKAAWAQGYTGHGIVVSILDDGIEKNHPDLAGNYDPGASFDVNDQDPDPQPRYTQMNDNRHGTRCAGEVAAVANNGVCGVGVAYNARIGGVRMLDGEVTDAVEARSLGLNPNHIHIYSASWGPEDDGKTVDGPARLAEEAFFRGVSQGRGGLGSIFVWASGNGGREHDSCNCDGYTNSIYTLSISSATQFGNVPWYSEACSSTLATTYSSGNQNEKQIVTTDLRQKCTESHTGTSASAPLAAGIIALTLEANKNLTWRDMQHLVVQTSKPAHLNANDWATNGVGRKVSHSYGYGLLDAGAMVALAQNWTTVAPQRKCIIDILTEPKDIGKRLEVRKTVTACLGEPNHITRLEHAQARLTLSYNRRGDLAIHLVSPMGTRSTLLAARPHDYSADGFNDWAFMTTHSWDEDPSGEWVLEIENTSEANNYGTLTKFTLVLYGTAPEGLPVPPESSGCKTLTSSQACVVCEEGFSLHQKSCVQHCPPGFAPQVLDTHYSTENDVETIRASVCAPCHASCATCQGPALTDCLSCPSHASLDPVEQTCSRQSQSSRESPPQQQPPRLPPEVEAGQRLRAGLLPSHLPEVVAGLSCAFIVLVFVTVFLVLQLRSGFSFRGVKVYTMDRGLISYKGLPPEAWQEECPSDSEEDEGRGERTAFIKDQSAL

Substance: poly-L-arginine [polyR]
- furin cleavage of L2 capsid protein: inhibited cleavage of the L2 capsid protein
